Reference: ChEMBL document CHEMBL6083277, “Discovery of SZJK-0421: A Novel Potent, Low Toxicity, Selective Second Generation of CRM1 Inhibitor for the Treatment of Both Hematological and Solid Tumors” (J Med Chem, 2024)
Active and inactive are the calls of the source. The rule behind the calls is not given here.

Key:
[1] = Toxicity in NOD-SCID mouse assessed as appearance of spindle shape in tumor at 60 mg/kg, po measured every 2 days for 21 days by H and E staining based analysis; type: organism-based; settings: in vivo, 504 h, time 21 day
[2] = test system: RPMI-8226; experiment: Antiproliferative activity against human RPMI-8226 cells assessed as inhibition of cell growth incubated for 72 hrs by celltiter-glo assay; type: functional, cell-based; settings: RPMI-8226, 72 h
[3] = Toxicity in NOD-SCID mouse assessed as reduction in number of tumor cells at 60 mg/kg, po measured every 2 days for 21 days by H and E staining based analysis; type: organism-based; settings: in vivo, 504 h, time 21 day
[4] = Toxicity in NOD-SCID mouse assessed as hyperplasia of crypt in intestine at 15 to 60 mg/kg, po measured every 2 days for 21 days by H and E staining based analysis; type: organism-based; settings: in vivo, 504 h, dose 15-60 mg/kg, time 21 day
[5] = Toxicity in BALB/c mouse assessed as side effect at 60 mg/kg, po administered once daily for 21 days; type: organism-based; settings: in vivo, 504 h, time 21 day
[6] = Oral bioavailability in male Sprague-Dawley rat at 30 mg/kg measured upto 30 hrs by LC-MS/MS analysis; type: ADME, organism-based; settings: in vivo
[7] = target: T1, Ran-specific GTPase-activating protein (Homo sapiens, UniProt P43487); experiment: Inhibition of RANBP1 nuclear export in human U2OS cells assessed as increase in fluorescence intensity measured for 15 mins by DAPI staining based fluorescence microscopic analysis; type: cell-based
T1 sequence (P43487 whole entry): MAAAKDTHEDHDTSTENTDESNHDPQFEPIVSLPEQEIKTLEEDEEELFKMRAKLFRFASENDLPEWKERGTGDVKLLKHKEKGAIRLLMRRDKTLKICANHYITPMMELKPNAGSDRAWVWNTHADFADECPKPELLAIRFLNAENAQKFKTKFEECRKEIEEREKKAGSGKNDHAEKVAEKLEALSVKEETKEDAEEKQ

[8] = Metabolic stability in rat liver microsomes assessed as half life measured upto 60 mins in presence of NADPH by LC/MS-MS analysis; type: ADME, Microsome
[9] = Tmax in male Sprague-Dawley rat at 30 mg/kg, po measured upto 30 hrs by LC-MS/MS analysis; type: ADME, organism-based; settings: in vivo
[10] = AUC (0 to t) in male Sprague-Dawley rat at 10 mg/kg, po measured upto 30 hrs by LC-MS/MS analysis; type: ADME, organism-based; settings: in vivo
[11] = Tmax in male Sprague-Dawley rat at 10 mg/kg, po measured upto 30 hrs by LC-MS/MS analysis; type: ADME, organism-based; settings: in vivo
[12] = test system: MM1.S; experiment: Induction of apoptosis in human MM1.S cells assessed as increase in cleaved caspase level at 0.5 to 1 uM incubated for 48 hrs by Western blot analysis; type: functional, cell-based; settings: dose 0.5-1 µM
[13] = Toxicity in NOD-SCID mouse implanted with human ARH-77 cells assessed as change in body weight at 15 to 60 mg/kg, po measured every 2 days for 21 days; type: organism-based; settings: in vivo, 504 h, dose 15-60 mg/kg, time 21 day
[14] = target: Exportin-1 (Homo sapiens) (UniProt O14980); experiment: (§1) Reversible competitive inhibition of human recombinant CRM1 at 2 uM incubated for 2 hrs in presence of 3-(1-((E)-3-(methoxyamino)-3-oxo-2-(pyrimidin-5-yl)prop-1-en-1-yl)-1H-1,2,4-triazol-3-yl)-5-(trifluoromethyl)phenyl 3-(5-((3aS,4S,6aR)-2-oxohexahydro-1H-thieno[3,4-d]imidazol-4-yl)pentanamido)propanoate by pull down based Western blot analysis
Exportin-1 (Homo sapiens), sequence (O14980 whole entry): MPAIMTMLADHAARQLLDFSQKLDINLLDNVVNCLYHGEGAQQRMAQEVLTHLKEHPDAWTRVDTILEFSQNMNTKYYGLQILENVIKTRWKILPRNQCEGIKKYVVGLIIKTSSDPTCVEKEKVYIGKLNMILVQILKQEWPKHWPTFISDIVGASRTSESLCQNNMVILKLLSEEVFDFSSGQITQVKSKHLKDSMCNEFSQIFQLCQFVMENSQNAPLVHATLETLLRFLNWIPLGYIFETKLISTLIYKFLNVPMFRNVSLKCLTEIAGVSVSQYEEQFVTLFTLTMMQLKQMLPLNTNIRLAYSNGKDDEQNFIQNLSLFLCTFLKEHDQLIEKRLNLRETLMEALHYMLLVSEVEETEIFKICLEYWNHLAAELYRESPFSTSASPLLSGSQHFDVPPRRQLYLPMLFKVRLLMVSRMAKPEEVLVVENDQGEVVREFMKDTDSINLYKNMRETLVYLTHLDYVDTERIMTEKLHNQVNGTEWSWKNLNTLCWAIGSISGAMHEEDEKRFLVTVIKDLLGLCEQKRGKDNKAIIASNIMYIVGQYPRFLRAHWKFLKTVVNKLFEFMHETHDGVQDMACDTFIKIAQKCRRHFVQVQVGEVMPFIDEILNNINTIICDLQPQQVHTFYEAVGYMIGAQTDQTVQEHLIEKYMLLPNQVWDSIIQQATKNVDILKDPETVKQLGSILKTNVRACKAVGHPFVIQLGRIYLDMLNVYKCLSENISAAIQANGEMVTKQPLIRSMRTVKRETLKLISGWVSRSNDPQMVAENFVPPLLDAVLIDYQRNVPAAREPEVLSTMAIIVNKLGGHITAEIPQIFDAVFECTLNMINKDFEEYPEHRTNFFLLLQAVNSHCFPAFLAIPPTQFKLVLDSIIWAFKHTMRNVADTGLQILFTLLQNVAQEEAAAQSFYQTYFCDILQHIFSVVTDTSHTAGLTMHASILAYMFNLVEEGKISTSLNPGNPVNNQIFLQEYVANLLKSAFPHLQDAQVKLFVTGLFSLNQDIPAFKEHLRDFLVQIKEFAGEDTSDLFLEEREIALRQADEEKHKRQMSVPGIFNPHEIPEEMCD

[15] = Oral bioavailability in male Sprague-Dawley rat at 15 mg/kg measured upto 30 hrs by LC-MS/MS analysis; type: ADME, organism-based; settings: in vivo
[16] = AUC (0 to infinity) in male Sprague-Dawley rat at 15 mg/kg, po measured upto 30 hrs by LC-MS/MS analysis; type: ADME, organism-based; settings: in vivo
[17] = test system: MM1.S; experiment: Inhibition of CRM1 protein expression in human MM1.S cells at 0.25 to 1.25 uM by Western blot analysis; type: functional, cell-based; settings: dose 0.25-1.25 µM, time 2-24 hrs
[18] = Cmax in male Sprague-Dawley rat plasma at 10 mg/kg, IG measured at 6 hrs by LC-MS/MS analysis; type: ADME, organism-based; settings: po
[19] = target: Voltage-gated inwardly rectifying potassium channel KCNH2 (Homo sapiens, UniProt Q12809); experiment: Inhibition of hERG in HEK293 cells; type: toxicity, cell-based
Voltage-gated inwardly rectifying potassium channel KCNH2, sequence (Q12809 whole entry): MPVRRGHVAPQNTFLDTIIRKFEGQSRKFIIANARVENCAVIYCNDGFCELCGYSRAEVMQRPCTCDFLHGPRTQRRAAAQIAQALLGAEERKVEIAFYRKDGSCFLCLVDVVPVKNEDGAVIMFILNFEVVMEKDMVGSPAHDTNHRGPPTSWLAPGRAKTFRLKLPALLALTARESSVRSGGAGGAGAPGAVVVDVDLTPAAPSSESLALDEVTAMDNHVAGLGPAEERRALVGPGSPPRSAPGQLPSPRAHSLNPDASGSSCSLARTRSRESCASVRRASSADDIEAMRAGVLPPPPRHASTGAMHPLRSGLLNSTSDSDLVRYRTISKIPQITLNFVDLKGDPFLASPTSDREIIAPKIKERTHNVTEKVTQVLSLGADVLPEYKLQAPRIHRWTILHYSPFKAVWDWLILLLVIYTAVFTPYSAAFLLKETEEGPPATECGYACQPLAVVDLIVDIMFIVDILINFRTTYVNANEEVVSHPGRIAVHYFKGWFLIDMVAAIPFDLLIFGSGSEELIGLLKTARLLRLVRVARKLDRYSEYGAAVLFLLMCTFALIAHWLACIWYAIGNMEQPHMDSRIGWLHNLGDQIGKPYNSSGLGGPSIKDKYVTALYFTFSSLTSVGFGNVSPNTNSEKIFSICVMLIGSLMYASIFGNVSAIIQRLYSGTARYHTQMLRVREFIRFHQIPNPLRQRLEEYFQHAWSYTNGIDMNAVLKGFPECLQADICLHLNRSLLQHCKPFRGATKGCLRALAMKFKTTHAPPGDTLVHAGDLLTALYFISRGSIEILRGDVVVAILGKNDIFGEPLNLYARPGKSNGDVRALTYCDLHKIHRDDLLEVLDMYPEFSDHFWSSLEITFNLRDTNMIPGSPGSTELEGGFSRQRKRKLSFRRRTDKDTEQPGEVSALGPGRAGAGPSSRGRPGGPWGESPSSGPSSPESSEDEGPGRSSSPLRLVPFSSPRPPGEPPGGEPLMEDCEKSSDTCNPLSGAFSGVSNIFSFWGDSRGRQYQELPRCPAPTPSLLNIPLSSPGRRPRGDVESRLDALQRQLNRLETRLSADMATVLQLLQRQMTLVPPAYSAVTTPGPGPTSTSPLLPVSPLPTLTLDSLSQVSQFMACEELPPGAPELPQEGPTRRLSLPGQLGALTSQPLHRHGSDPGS

[20] = AUC (0 to t) in male Sprague-Dawley rat at 30 mg/kg, po measured upto 30 hrs by LC-MS/MS analysis; type: ADME, organism-based; settings: in vivo
[21] = test system: MM1.S; experiment: Induction of apoptosis in human MM1.S cells assessed as increase in FOXO3A signal intensity; type: functional, cell-based
[22] = Metabolic stability in dog liver microsomes assessed as half life measured upto 60 mins in presence of NADPH by LC/MS-MS analysis; type: ADME, Canis lupus familiaris, Microsome
[23] = Toxicity in BALB/c mouse assessed as shortened intestine at 90 to 120 mg/kg, po administered once daily for 21 days; type: organism-based; settings: in vivo, 504 h, dose 90-120 mg/kg, time 21 day
[24] = test system: ARH-77; experiment: Antitumor activity against human ARH-77 cells xenografted in NOD-SCID mouse at 15 to 60 mg/kg, po measured every 2 days for 21 days; type: functional, organism-based; settings: dose 15-60 mg/kg, time 21.0 day
[25] = Half life in male Sprague-Dawley rat at 2 mg/kg, iv measured upto 30 hrs by LC-MS/MS analysis; type: ADME, organism-based; settings: in vivo
[26] = AUC (0 to t) in male Sprague-Dawley rat at 15 mg/kg, po measured upto 30 hrs by LC-MS/MS analysis; type: ADME, organism-based; settings: in vivo
[27] = target: Exportin-1 (Homo sapiens) (UniProt O14980); experiment: Inhibition of CRM1 in human MM1.S cells assessed as accumulation of IkappaB protein level at 0.5 to 1 uM incubated for 24 hrs by Western blot analysis; type: cell-based; settings: dose 0.5-1 µM
[28] = Toxicity in NOD-SCID mouse assessed as appearance of large nucleus in tumor at 60 mg/kg, po measured every 2 days for 21 days by H and E staining based analysis; type: organism-based; settings: in vivo, 504 h, time 21 day
[29] = target: T1, Ran-specific GTPase-activating protein; experiment: Inhibition of RANBP1 nuclear export in human U2OS cells assessed as increase in fluorescence intensity at 100 uM measured for 15 mins by DAPI staining based fluorescence microscopic analysis; type: cell-based
[30] = test system: LoVo; experiment: Antiproliferative activity against human LoVo cells assessed as inhibition of cell growth incubated for 72 hrs by celltiter-glo assay; type: functional, cell-based
[31] = AUC (0 to infinity) in male Sprague-Dawley rat at 10 mg/kg, po measured upto 30 hrs by LC-MS/MS analysis; type: ADME, organism-based; settings: in vivo
[32] = AUC (0 to t) in male Sprague-Dawley rat at 2 mg/kg, iv measured upto 30 hrs by LC-MS/MS analysis; type: ADME, organism-based; settings: in vivo
[33] = Oral bioavailability in male Sprague-Dawley rat at 10 mg/kg measured upto 30 hrs by LC-MS/MS analysis; type: ADME, organism-based; settings: in vivo
[34] = Metabolic stability in dog liver microsomes assessed as intrinsic clearance measured upto 60 mins in presence of NADPH by LC/MS-MS analysis; type: ADME, Canis lupus familiaris, Microsome; settings: read-out: CLH
[35] = Metabolic stability in monkey liver microsomes assessed as intrinsic clearance measured upto 60 mins in presence of NADPH by LC/MS-MS analysis; type: ADME, Macaca mulatta, Microsome; settings: rhesus monkey, read-out: CLH
[36] = target: Exportin-1 (Homo sapiens) (UniProt O14980); experiment: as §1, with “Competitive” for “Reversible competitive”
[37] = Cmax in male Sprague-Dawley rat at 30 mg/kg, po measured upto 30 hrs by LC-MS/MS analysis; type: ADME, organism-based; settings: in vivo
[38] = Toxicity in NOD-SCID mouse implanted with human HCT-116 cells assessed as body weight loss at 60 mg/kg, po measured every 2 days for 21 days; type: organism-based; settings: in vivo, 504 h, time 21 day
[39] = Toxicity in Sprague-Dawley rat at 30 mg/kg, po measured upto 48 hrs; type: organism-based; settings: in vivo

IC50 [2]: 304 nM | bioavailability [6]: 46.3% | IC50 [7]: 620 nM | half-life [8]: > 2 h | Tmax [9]: 0.3 h | AUC(0-t) at 30 h [10]: 3610 ng·h/mL | Tmax [11]: 0.3 h | inhibition [14]: Active | bioavailability [15]: 52.1% | AUC(0-inf) [16]: 5830 ng·h/mL | Cmax [18]: 18.9 ng/mL | AUC(0-t) at 30 h [20]: 9000 ng·h/mL | half-life [22]: > 2 h | half-life [25]: 4.2 h | AUC(0-t) at 30 h [26]: 5080 ng·h/mL | Activity [27]: Active | inhibition [29]: Active | IC50 [30]: 2040 nM | AUC(0-inf) [31]: 4180 ng·h/mL | AUC(0-t) at 30 h [32]: 1300 ng·h/mL | bioavailability [33]: 56% | microsomal CLint [34]: 2.6 µL/min/mg | microsomal CLint [35]: 8.6 µL/min/mg | inhibition [36]: Active | Cmax [37]: 844 ng/mL
SMILES: CONC(=O)/C(=C/n1cnc(-c2cc(C(F)(F)F)cc(C(F)(F)F)c2)n1)c1cncnc1
Activity [1]: Non-toxic | Activity [3]: Non-toxic | Activity [4]: Non-toxic | Activity [5]: Non-toxic | Activity [12]: Active | Activity [13]: Toxic | inhibition [17]: Time-dependent-effect | IC50 [19]: 18900 nM | Activity [21]: Active | Activity [23]: Non-toxic | Activity [24]: Active | Activity [28]: Non-toxic | Activity [38]: Non-toxic | Activity [39]: Non-toxic
